This is an account of results in PubChem BioAssay (NCI).

Values joined by “and” are separate entries in the source; they are usually repeats but may differ in a detail not shown here. Equal entries are not always repeated.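 Where inhibition never reached the appropriate level, the endpoint shown equals the highest concentration tested. Otherwise, values were interpolated linearly from a five-concentration, 48-hour dose response in 96-well plates. At the GI50, growth is halved. TGI denotes the concentration required for complete inhibition of growth.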

Some test systems named below: MCF7 breast; SF-539 CNS; MOLT-4 leukemia; OVCAR-8 ovarian; RXF 393 renal; MALME-3M melanoma; SK-OV-3 ovarian; HT29 colon; KM12 colon; TK-10 renal.
What all share (test): NCI anticancer screen, dose series, 48 h

Regarding `Nc1nc(N)c2nc(CNc3ccc(C(=O)NC(CC(=O)O)C(=O)O)cc3)cnc2n1` (stereo not drawn), the GI50 in the experiment on MCF7 breast was 0.631 µM; in the experiment with SF-539 CNS, 3.93 µM; in the experiment with MOLT-4 leukemia, 0.903 µM; in the experiment on OVCAR-8 ovarian, 0.589 µM; with RXF 393 renal it was above 72.4 µM; in the experiment with MALME-3M melanoma it was above 100 µM. Also, the GI50 in the experiment on SK-OV-3 ovarian was above 53.5 µM; in the experiment on HT29 colon, 0.542 µM; in the experiment with KM12 colon, 0.897 µM; in the experiment on TK-10 renal, 1.71 µM. Moreover, the TGI in the experiment on MCF7 breast, in the experiment with SF-539 CNS, in the experiment on MOLT-4 leukemia, in the experiment with OVCAR-8 ovarian, in the experiment with RXF 393 renal and with MALME-3M melanoma was above 100 µM throughout. The TGI in the experiment on SK-OV-3 ovarian, in the experiment on HT29 colon, in the experiment on KM12 colon and with TK-10 renal was above 100 µM each time.
On to `O=C(Nc1cccc(-n2cc(-c3ccncc3)c(-c3ccc(Cl)c(O)c3)n2)c1)c1ccc(N2CCOCC2)c(C(F)(F)F)c1`, for which the GI50 in the experiment with MCF7 breast is 2.81 µM; in the experiment on SF-539 CNS it was 1.37 µM; in the experiment on MOLT-4 leukemia it was 2.37 µM; in the experiment on OVCAR-8 ovarian, 3.16 µM; in the experiment on RXF 393 renal, 0.626 µM; in the experiment with MALME-3M melanoma, 1.25 µM. Moreover, the GI50 in the experiment on SK-OV-3 ovarian is 20 µM; in the experiment on HT29 colon it was 14.4 µM; with KM12 colon, 1.94 µM; in the experiment on TK-10 renal, 21.3 µM. The TGI in the experiment on MCF7 breast was above 50 µM; in the experiment with SF-539 CNS, 17.3 µM; with MOLT-4 leukemia it was 36.7 µM; in the experiment on OVCAR-8 ovarian it was above 50 µM; in the experiment on RXF 393 renal, 2.9 µM; with MALME-3M melanoma, 4.08 µM. Further, the TGI in the experiment with SK-OV-3 ovarian, with HT29 colon, in the experiment on KM12 colon and with TK-10 renal was above 50 µM throughout.
Regarding `CC1(N)CCN(c2cccnc2NC(=O)c2nc(-c3ncccc3C(F)(F)F)cnc2N)CC1`, the GI50 was 26.2 µM in the experiment on MCF7 breast; 14.4 µM in the experiment with SF-539 CNS; 13.9 µM with MOLT-4 leukemia; 40.2 µM in the experiment with OVCAR-8 ovarian; 10.1 µM with RXF 393 renal; 17.6 µM in the experiment on MALME-3M melanoma. Moreover, the GI50 in the experiment on SK-OV-3 ovarian was 7.86 µM; in the experiment with HT29 colon, 19.6 µM; with KM12 colon, 0.413 µM; in the experiment on TK-10 renal, 4.35 µM. Further, the TGI with MCF7 breast is above 100 µM; with SF-539 CNS, 33.7 µM; with MOLT-4 leukemia it was 69.7 µM; with OVCAR-8 ovarian it was above 100 µM; in the experiment with RXF 393 renal, 32.4 µM; in the experiment on MALME-3M melanoma it was 36.4 µM. For the same compound, the TGI in the experiment on SK-OV-3 ovarian was 73.8 µM; in the experiment with HT29 colon it was above 100 µM; in the experiment on KM12 colon it was above 100 µM; in the experiment with TK-10 renal it was above 100 µM.
In the case of `NC(=O)c1ccc(I)c(N=O)c1`, the GI50 was 39.6 µM in the experiment with MCF7 breast; 32.3 µM with SF-539 CNS; 36.5 µM in the experiment on MOLT-4 leukemia; 25.8 µM with OVCAR-8 ovarian; 28.7 µM in the experiment with RXF 393 renal; 34 µM in the experiment on MALME-3M melanoma. Further, the GI50 with SK-OV-3 ovarian was above 100 µM; in the experiment with HT29 colon it was 20.6 µM; in the experiment on KM12 colon it was 40.7 µM; in the experiment with TK-10 renal it was 34.9 µM. The TGI was above 100 µM with MCF7 breast; above 100 µM in the experiment on SF-539 CNS; above 100 µM with MOLT-4 leukemia; 60.6 µM with OVCAR-8 ovarian; 66 µM in the experiment on RXF 393 renal; above 100 µM in the experiment on MALME-3M melanoma. Also, the TGI in the experiment on SK-OV-3 ovarian is above 100 µM; with HT29 colon, 39.5 µM; with KM12 colon it was above 100 µM; with TK-10 renal, above 100 µM.
Consider `O=c1ccn(C2CC(O)C(CO)O2)c(=O)[nH]1` (stereo not drawn), for which the GI50 with MCF7 breast is 3000 µM; with SF-539 CNS, above 5000 µM; in the experiment on MOLT-4 leukemia, 548 µM and 227 µM; in the experiment with OVCAR-8 ovarian, above 5000 µM; with RXF 393 renal it was above 5000 µM; in the experiment with MALME-3M melanoma, above 5000 µM. The GI50 in the experiment with SK-OV-3 ovarian, in the experiment with HT29 colon, in the experiment with KM12 colon and in the experiment on TK-10 renal was above 5000 µM each time. Moreover, the TGI in the experiment with MCF7 breast, with SF-539 CNS, in the experiment on MOLT-4 leukemia, in the experiment with OVCAR-8 ovarian, in the experiment on RXF 393 renal and in the experiment on MALME-3M melanoma was above 5000 µM in each case. In addition, the TGI in the experiment with SK-OV-3 ovarian, in the experiment on HT29 colon, in the experiment on KM12 colon and with TK-10 renal was above 5000 µM throughout.
Regarding `CC(=O)OC[C@]12CC[C@@H](C(=O)CBr)[C@@H]1[C@H]1CC[C@@H]3[C@@]4(C)CCCNC(C)(C)[C@@H]4CC[C@@]3(C)[C@]1(C)CC2`, the GI50 was 2.27 µM in the experiment with MCF7 breast; 2.42 µM with SF-539 CNS; 2.03 µM in the experiment on MOLT-4 leukemia; 4.1 µM in the experiment on OVCAR-8 ovarian; 1.83 µM with RXF 393 renal; 2 µM with MALME-3M melanoma. Further, the GI50 with SK-OV-3 ovarian is 12.6 µM; with HT29 colon it was 3.07 µM; in the experiment on KM12 colon, 11.8 µM; in the experiment on TK-10 renal, 2.93 µM. The TGI was found to be 6.21 µM in the experiment with MCF7 breast; 6.57 µM with SF-539 CNS; 5.43 µM in the experiment on MOLT-4 leukemia; 23.8 µM in the experiment with OVCAR-8 ovarian; 3.64 µM with RXF 393 renal; 4.29 µM in the experiment with MALME-3M melanoma. The TGI turned out to be 26.1 µM in the experiment with SK-OV-3 ovarian, 10.5 µM with HT29 colon, 27.3 µM with KM12 colon and 11.6 µM in the experiment with TK-10 renal.
Regarding `O=C(O)c1cc2ccc3ccccc3c2oc1=O`, the TGI with MCF7 breast, in the experiment with SF-539 CNS, in the experiment with MOLT-4 leukemia, in the experiment with OVCAR-8 ovarian, with RXF 393 renal and in the experiment with MALME-3M melanoma was above 100 µM throughout. The TGI in the experiment with SK-OV-3 ovarian, in the experiment on HT29 colon, in the experiment with KM12 colon and with TK-10 renal was above 100 µM in each case.
For the compound `COc1ccc2c(c1)nnn1c3ncccc3c(N=O)c21`, the GI50 in the experiment with MCF7 breast was 0.132 µM and 0.336 µM; in the experiment with SF-539 CNS, 0.467 µM and 1.51 µM; with MOLT-4 leukemia it was 0.0094 µM and 0.0123 µM; in the experiment with OVCAR-8 ovarian it was 0.389 µM and 0.517 µM; in the experiment with RXF 393 renal it was 0.308 µM and 1.96 µM; in the experiment on MALME-3M melanoma it was 0.769 µM and 1.5 µM. Also, the GI50 in the experiment with SK-OV-3 ovarian was 1.68 µM and 2.94 µM; in the experiment on HT29 colon it was 0.622 µM and 1.2 µM; in the experiment on KM12 colon, 1.03 µM and 3.02 µM; in the experiment on TK-10 renal it was 5.08 µM. The TGI in the experiment with MCF7 breast is 0.814 µM and 2.21 µM; with SF-539 CNS, 1.24 µM and 3.18 µM; with OVCAR-8 ovarian it was 21.4 µM and 3.73 µM; in the experiment with RXF 393 renal, 3.14 µM and 10.9 µM; in the experiment on MALME-3M melanoma, 5.77 µM and 5.63 µM; in the experiment on SK-OV-3 ovarian it was 11.8 µM and 19.6 µM. The TGI in the experiment on KM12 colon is 6.91 µM and 13.5 µM; in the experiment with TK-10 renal, 19.2 µM.
